Results on 22 molecules are retold here after patent US7605272B2, “IGF-1R inhibitor” (Kyowa Hakko Kirin Co., Ltd., priority 2005, dated 2009).

The structures appear in SMILES notation. Structures can show the parent of a compound that is named as a salt.

The test system of one test is KMS-11. In words: Cytostatic activity on human multiple myeloma cell line KMS-11 (WST-1). To be noted: 1 μmol/L, 72 hours; for inhibition at 1 µM: Homo sapiens, KMS-11, 72 h, read-out: cytostatic rate (%) KMS-11 (1 μmol/L). The class given is cell-based. Put shortly:
(§1)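 Cells pre-cultured 24 h at 37 °C, 5% CO2, then exposed 72 h to compound at final 1 or 10 μmol/L (0.1% DMSO). WST-1 added for 2 h, absorbance at 450 nm (ref 690 nm). Cytostatic rate = 100 minus relative growth, with DMSO control as 100% and blank as 0%.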
For orientation: Formazan colour is commonly taken as a measure of viable cells.

In a further test the target is T1, IGF-1R (Homo sapiens, UniProt P08069).
T1 construct: purchased Upstate Co. 14-465
As to the kind of experiment: IGF-1R inhibitory activity (kinase reaction, time-resolved fluoroimmunoassay). The class given is biochemical. To be noted: IGF-1R active recombinant enzyme, test compound 10 μmol/L. In short, it runs like this: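 Compounds were tested at a single 10 μmol/L concentration. Each was incubated with recombinant IGF-1R (200 μg/L), 10 mmol/L ATP, MgCl2/MnCl2 and Na3VO4 (pH 7.5) on immobilized poly(Glu-Tyr) peptide for 30 min at 24° C. Eu-anti-phosphotyrosine time-resolved fluorescence (340/615 nm) gave relative activity against no-compound and no-enzyme wells, reported as % inhibition.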

The next test has as its system NCI-H929. As to the kind of experiment: Cytostatic activity on human multiple myeloma cell line NCI-H929 (WST-1). The class given is cell-based. To be noted: 1 μmol/L, 72 hours; for inhibition at 1 µM: Homo sapiens, NCI-H929, 72 h, read-out: cytostatic rate (%) H929 (1 μmol/L). Put shortly: as §1

T1 sequence (P08069 959-1367 limits assumed): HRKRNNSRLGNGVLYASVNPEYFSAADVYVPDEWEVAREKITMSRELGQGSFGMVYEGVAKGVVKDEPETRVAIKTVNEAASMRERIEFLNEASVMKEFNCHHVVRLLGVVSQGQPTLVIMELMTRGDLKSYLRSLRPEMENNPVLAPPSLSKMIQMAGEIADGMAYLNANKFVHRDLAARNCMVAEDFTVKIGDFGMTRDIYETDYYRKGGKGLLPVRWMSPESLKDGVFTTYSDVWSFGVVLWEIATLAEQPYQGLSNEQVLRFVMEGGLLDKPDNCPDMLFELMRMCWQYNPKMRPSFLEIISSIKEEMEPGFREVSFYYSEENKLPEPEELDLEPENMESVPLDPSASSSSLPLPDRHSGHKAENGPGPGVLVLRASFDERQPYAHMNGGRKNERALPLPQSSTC

As for `CCN(CC)CCOc1ccc(NC(=O)c2sccc2C)c(/C=C/c2n[nH]c3ccccc23)c1` [Compound 237, (E)-N-{2-[2-(1H-indazol-3-yl)vinyl]-4-(2-diethylaminoethoxy)phenyl}-3-methylthiophene-2-carboxamide], the inhibition at 1 µM in the test on KMS-11 stood at 144%; with NCI-H929, 120%. Besides, the inhibition at 10 µM at IGF-1R is 100%.
Turning to `COCCN(CCN1CCOCC1)c1ccc(NC(=O)c2sccc2C)c(/C=C/c2n[nH]c3ccccc23)c1` [Compound 238, (E)-N-{2-[2-(1H-indazol-3-yl)vinyl]-4-[N-(2-methoxyethyl)-2-(morpholin-4-yl)ethylamino]phenyl}-3-methylthiophene-2-carboxamide], the results for the inhibition at 1 µM with KMS-11 and with NCI-H929 were 132% and 126%, respectively. The inhibition at 10 µM at IGF-1R came to 97.1%.
`Cc1ccsc1C(=O)Nc1cc(C(=O)NC2CCNCC2)ccc1/C=C/c1n[nH]c2ccccc12` [Compound 240, (E)-N-{2-[2-(1H-indazol-3-yl)vinyl]-5-(piperidin-4-ylcarbamoyl)phenyl}-3-methylthiophene-2-carboxamide hydrochloride]: the inhibition at 1 µM in the test on KMS-11 was determined as 67%; in the test on NCI-H929, 105%. The inhibition at 10 µM on IGF-1R was 103%.
For `COCC(=O)N1CCN(Cc2ccc(/C=C/c3n[nH]c4ccccc34)c(NC(=O)c3sccc3C)c2)CC1` [Compound 244, (E)-N-{2-[2-(1H-indazol-3-yl)vinyl]-5-[4-(2-methoxyacetyl)piperazin-1-ylmethyl]phenyl}-3-methylthiophene-2-carboxamide], the inhibition at 1 µM in the test with KMS-11 was found to be 124%; with NCI-H929, 127%. For the same molecule, on IGF-1R, the inhibition at 10 µM turned out to be 102%.
Turning to `Cl.Cn1cccc1C(=O)Nc1cc(N2CCOCC2)ccc1/C=C/c1n[nH]c2ccccc12` [Compound 246, (E)-{2-[2-(1H-indazol-3-yl)vinyl]-5-(morpholin-4-yl)phenyl}-1-methyl-1H-pyrrole-2-carboxamide monohydrochloride], in the test with KMS-11, the “cytostatic rate (%) KMS-11 (1 μmol/L)” value amounted to 128.9%. Also, at IGF-1R, the “inhibitory activity (%) at 10 μmol/L” value is on record as 100.2%. For the same molecule, the “cytostatic rate (%) H929 (1 μmol/L)” value in the test with NCI-H929 turned out to be 126.7%.
As to `Cc1ccsc1C(=O)Nc1cc(CN2CCN(C(=O)CO)CC2)ccc1/C=C/c1n[nH]c2ccccc12` [Compound 248, (E)-N-{2-[2-(1H-indazol-3-yl)vinyl]-5-[4-(2-hydroxyacetyl)piperazin-1-ylmethyl]phenyl}-3-methylthiophene-2-carboxamide], the figures for the inhibition at 1 µM with KMS-11 and in the test with NCI-H929 were 113% and 114%, respectively. Further, the inhibition at 10 µM at IGF-1R came to 100%.
Consider `COCCN(CCN1CCOCC1)C(=O)c1ccc(/C=C/c2n[nH]c3ccccc23)c(NC(=O)c2sccc2C)c1` [Compound 249, (E)-N-(2-[2-(1H-indazol-3-yl)vinyl]-5-{N-(2-methoxyethyl)-N-[2-(morpholin-4-yl)ethyl]carbamoyl}phenyl)-3-methylthiophene-2-carboxamide], for which the inhibition at 1 µM in the test with KMS-11 and in the test on NCI-H929 was 113% in each case. Also, the inhibition at 10 µM on IGF-1R came out at 100%.
With `Cc1ccsc1C(=O)Nc1cc(OCCN2CCOCC2)ccc1/C=C/c1n[nH]c2ccccc12` [Compound 251, (E)-N-{2-[2-(1H-indazol-3-yl)vinyl]-5-[2-(morpholin-4-yl)ethoxy]phenyl}-3-methylthiophene-2-carboxamide], the inhibition at 1 µM with KMS-11 was found to be 114%; with NCI-H929 it was 112%. The inhibition at 10 µM at IGF-1R is 102%.
Consider `COCCN(C)Cc1ccc(/C=C/c2n[nH]c3ccccc23)c(NC(=O)c2sccc2C)c1` [Compound 252, (E)-N-{2-[2-(1H-indazol-3-yl)vinyl]-5-[N-(2-methoxyethyl)methylaminomethyl]phenyl}-3-methylthiophene-2-carboxamide], for which the inhibition at 1 µM was found to be 113% in the test with KMS-11 and 120% with NCI-H929. In addition, the inhibition at 10 µM at IGF-1R was determined as 101%.
Taken in the same sequence, the figures for `Nc1cccc2c1C(=O)N(c1ccc(F)cc1/C=C/c1n[nH]c3ccccc13)C2=O` [Compound 254, (E)-4-amino-2-{4-fluoro-2-[2-(1H-indazol-3-yl)vinyl]phenyl}isoindole-1,3-dione] were 81.2%, 116% and 99.5%.
The like results for `CCN(CC)CCN(CCO)C(=O)c1ccc(/C=C/c2n[nH]c3ccccc23)c(NC(=O)c2sccc2C)c1` [Compound 255, (E)-N-(5-{N-[2-(diethylamino)ethyl]-N-(2-hydroxyethyl)carbamoyl}-2-[2-(1H-indazol-3-yl)vinyl]phenyl)-3-methylthiophene-2-carboxamide] were, in that order, 97.6%, 121% and 100%.
For the molecule `COCCCN(CCO)C(=O)c1ccc(/C=C/c2n[nH]c3ccccc23)c(NC(=O)c2sccc2C)c1` [Compound 256, (E)-N-{5-[N-(2-hydroxyethyl)-N-(3-methoxypropyl)carbamoyl]-2-[2-(1H-indazol-3-yl)vinyl]phenyl}-3-methylthiophene-2-carboxamide], the results for the inhibition at 1 µM in the test on KMS-11 and in the test with NCI-H929 were 105% and 122%, respectively. The inhibition at 10 µM at IGF-1R stood at 100%.
Taken in the same sequence, the figures for `Cc1ccsc1C(=O)Nc1cc(C(=O)N(CCO)CCN2CCOCC2)ccc1/C=C/c1n[nH]c2ccccc12` [Compound 259, (E)-N-{5-[N-(2-hydroxyethyl)-N-(2-morpholinoethyl)carbamoyl]-2-[2-(1H-indazol-3-yl)vinyl]phenyl}-3-methylthiophene-2-carboxamide] were 104%, 118% and 102%.
Consider `COCCN(C)C(=O)c1ccc(/C=C/c2n[nH]c3ccccc23)c(NC(=O)c2sccc2C)c1` [Compound 260, (E)-N-{2-[2-(1H-indazol-3-yl)vinyl]-5-[N-(2-methoxyethyl)-N-methylcarbamoyl]phenyl}-3-methylthiophene-2-carboxamide], for which the inhibition at 1 µM in the test on KMS-11 was 118%; in the test with NCI-H929, 119%. The inhibition at 10 µM on IGF-1R was found to be 102%.
The like results for `COc1ccc(/C=C/c2n[nH]c3ccccc23)c(NC(=O)c2sccc2C)c1OC` [Compound 261, (E)-N-{6-[2-(1H-indazol-3-yl)vinyl]-2,3-dimethoxyphenyl}-3-methylthiophene-2-carboxamide] were, in that order, 121%, 115% and 101%.
As to `Cc1ccsc1C(=O)Nc1cc(N2CCN(C)CC2)ccc1/C=C/c1n[nH]c2ccccc12` [Compound 262, (E)-N-{2-[2-(1H-indazol-3-yl)vinyl]-5-(4-methylpiperazin-1-yl)phenyl}-3-methylthiophene-2-carboxamide], the inhibition at 1 µM with KMS-11 and in the test with NCI-H929 was 119% each time. The inhibition at 10 µM at IGF-1R stood at 103%.
For `Cc1ccsc1C(=O)Nc1cc(CNC2CCNCC2)ccc1/C=C/c1n[nH]c2ccccc12` [Compound 264, (E)-N-{2-[2-(1H-indazol-3-yl)vinyl]-5-(piperidin-4-ylaminomethyl)phenyl}-3-methylthiophene-2-carboxamide], the values for the inhibition at 1 µM in the test on KMS-11 and in the test with NCI-H929 were 58.5% and 111%, respectively. Moreover, the inhibition at 10 µM at IGF-1R came out at 102%.
`Cc1ccsc1C(=O)Nc1cc(F)ccc1/C=C/c1n[nH]c2ccccc12` [Compound 265, (E)-N-{5-fluoro-2-[2-(1H-indazol-3-yl)vinyl]phenyl}-3-methylthiophene-2-carboxamide]: the figures for the inhibition at 1 µM with KMS-11 and in the test on NCI-H929 were 96.9% and 115%, respectively. At IGF-1R, the inhibition at 10 µM was found to be 98.4%.
For `COc1c(OCCN2CCOCC2)ccc(/C=C/c2n[nH]c3ccccc23)c1NC(=O)c1sccc1C` [Compound 266, (E)-N-{6-[2-(1H-indazol-3-yl)vinyl]-2-methoxy-3-(2-morpholinoethoxy)phenyl}-3-methylthiophene-2-carboxamide], the inhibition at 1 µM in the test on KMS-11 is 131%; in the test on NCI-H929 it was 118%. Moreover, at IGF-1R, the inhibition at 10 µM was determined as 103%.
Consider `COCCN(CCN1CCOCC1)c1ccc(/C=C/c2n[nH]c3ccccc23)c(NC(=O)c2sccc2C)c1` [Compound 267, (E)-N-{2-[2-(1H-indazol-3-yl)vinyl]-5-[N-(2-methoxyethyl)-2-(morpholinoethyl)amino]phenyl}-3-methylthiophene-2-carboxamide], for which, in the test on KMS-11, the “cytostatic rate (%) KMS-11 (1 μmol/L)” value is 133.8%. Further, the “inhibitory activity (%) at 10 μmol/L” value at IGF-1R worked out at 100.3%. The “cytostatic rate (%) H929 (1 μmol/L)” value in the test on NCI-H929 is on record as 118.1%.
In the case of `Cc1ccsc1C(=O)Nc1cc(CN2CCN(CCC#N)CC2)ccc1/C=C/c1n[nH]c2ccccc12` [Compound 268, (E)-N-{5-[4-(2-cyanoethyl)piperazin-1-ylmethyl]-2-[2-(1H-indazol-3-yl)vinyl]phenyl}-3-methylthiophene-2-carboxamide], the inhibition at 1 µM is 129% in the test with KMS-11 and 118% in the test with NCI-H929. Also, the inhibition at 10 µM on IGF-1R amounted to 101%.
The like results for `CC(=O)N1CCN(Cc2ccc(/C=C/c3n[nH]c4ccccc34)c(NC(=O)c3sccc3C)c2)CC1` [Compound 269, (E)-N-{5-(4-acetylpiperazin-1-ylmethyl)-2-[2-(1H-indazol-3-yl)vinyl]phenyl}-3-methylthiophene-2-carboxamide] were, in that order, 132%, 119% and 101%.
